Values quoted from earlier work in PMC2593936 (Bioorganic & medicinal chemistry, 2008).
Marks after values point to notes of the source that are not given here.

Target: T1, human A3AR (Homo sapiens, UniProt P0DMS8)
T1 sequence (P0DMS8 1-318): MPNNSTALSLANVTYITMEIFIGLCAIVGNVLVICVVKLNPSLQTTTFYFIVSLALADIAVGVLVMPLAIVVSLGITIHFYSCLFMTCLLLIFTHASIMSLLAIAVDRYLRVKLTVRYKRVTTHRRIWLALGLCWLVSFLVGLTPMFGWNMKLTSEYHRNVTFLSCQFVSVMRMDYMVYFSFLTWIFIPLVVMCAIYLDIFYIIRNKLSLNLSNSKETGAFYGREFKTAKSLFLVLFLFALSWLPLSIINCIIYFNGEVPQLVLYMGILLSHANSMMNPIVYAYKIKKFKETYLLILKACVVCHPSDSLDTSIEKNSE
Details: relative to full agonist NECA at 10 μM

%Efficacy A3: 100 ^c %
SMILES: CNC(=O)[C@@]12C[C@@H]1[C@@H](n1cnc3c(NCc4cccc(I)c4)nc(Cl)nc31)[C@H](O)[C@@H]2O [Compound 7]
